ChEMBL document CHEMBL4152218, “Novel hydrazide-hydrazone and amide substituted coumarin derivatives: Synthesis, cytotoxicity screening, microarray, radiolabeling and in vivo pharmacokinetic studies” (Eur J Med Chem, 2018)
The source made the active and inactive calls. No cut-off for these calls is given here.

Assays:
HepG2 [1] = test: Effect on OKL38 gene expression in human HepG2 cells at IC50 after 48 hrs by microarray analysis; format: functional, cell-based
HepG2 [2] = test: Effect on DIDO1 gene expression in human HepG2 cells at IC50 after 48 hrs by microarray analysis; format: functional, cell-based
HepG2 [3] = test: Effect on GST M1 gene expression in human HepG2 cells at IC50 after 48 hrs by microarray analysis; format: functional, cell-based
HepG2 [4] = test: Effect on GDF15 gene expression in human HepG2 cells at IC50 by SYBR green-dye based qRT-PCR analysis relative to beta-actin; format: functional
HepG2 [5] = test: Effect on C1orf186 gene expression in human HepG2 cells at IC50 after 48 hrs by microarray analysis; format: functional, cell-based
TERT-RPE1 = test: Cytotoxicity against hTERT-RPE1 cells at 25 uM after 48 hrs by resazurin dye-based fluorescence assay relative to control; format: cell-based; conditions: human, tert-rpe1, 48 h
PANC-1 [6] = test: Effect on PVRL3 gene expression in human PANC1 cells at IC50 after 48 hrs by microarray analysis; format: functional, cell-based
hTERT-BJ [7] = test: Cytotoxicity against hTERT-BJ cells at 25 uM after 48 hrs by resazurin dye-based fluorescence assay relative to control; format: cell-based; conditions: human
PANC-1 [8] = test: Effect on SDR16C5 gene expression in human PANC1 cells at IC50 after 48 hrs by microarray analysis; format: functional, cell-based
HepG2 [9] = test: Effect on CASP8 gene expression in human HepG2 cells at IC50 after 48 hrs by microarray analysis; format: functional, cell-based
HepG2 [10] = test: Effect on CYP3A4 gene expression in human HepG2 cells at IC50 after 48 hrs by microarray analysis; format: ADME, cell-based; conditions: hepg2, 48 h
PANC-1 [11] = test: Effect on TOP3A gene expression in human PANC1 cells at IC50 after 48 hrs by microarray analysis; format: functional, cell-based
PANC-1 [12] = test: Effect on PAH gene expression in human PANC1 cells at IC50 after 48 hrs by microarray analysis; format: functional, cell-based
HepG2 [13] = test: Effect on OR5P2 gene expression in human HepG2 cells at IC50 after 48 hrs by microarray analysis; format: functional, cell-based
HepG2 [14] = test: Effect on PCDH21 gene expression in human HepG2 cells at IC50 after 48 hrs by microarray analysis; format: functional, cell-based
PANC-1 [15] = test: Effect on CTBP2 gene expression in human PANC1 cells at IC50 after 48 hrs by microarray analysis; format: functional, cell-based
HepG2 [16] = test: Effect on GADD45A gene expression in human HepG2 cells at IC50 after 48 hrs by microarray analysis relative to control; format: functional
HepG2 [17] = test: Effect on CXCR3 gene expression in human HepG2 cells at IC50 after 48 hrs by microarray analysis; format: functional, cell-based
HepG2 [18] = test: Effect on PRPF4B gene expression in human HepG2 cells at IC50 after 48 hrs by microarray analysis; format: functional, cell-based
HepG2 [19] = test: Effect on CASP2 gene expression in human HepG2 cells at IC50 after 48 hrs by microarray analysis; format: functional, cell-based
HepG2 [20] = test: Effect on CASP7 gene expression in human HepG2 cells at IC50 by SYBR green-dye based qRT-PCR analysis relative to beta-actin; format: functional
PANC-1 [21] = test: Effect on CYP3A4 gene expression in human PANC1 cells at IC50 after 48 hrs by microarray analysis; format: ADME, cell-based; conditions: panc-1, 48 h
HepG2 [22] = test: Effect on SYT2 gene expression in human HepG2 cells at IC50 after 48 hrs by microarray analysis; format: functional, cell-based
PANC-1 [23] = test: Effect on RBM39 gene expression in human PANC1 cells at IC50 after 48 hrs by microarray analysis; format: functional, cell-based
hTERT-BJ [24] = test: Cytotoxicity against hTERT-BJ cells at 12.50 uM after 48 hrs by resazurin dye-based fluorescence assay relative to control; format: cell-based; conditions: human, 12.5 µM
HepG2 [25] = test: Effect on TOP2A gene expression in human HepG2 cells at IC50 by SYBR green-dye based qRT-PCR analysis relative to beta-actin; format: functional
HepG2 [26] = test: Effect on INHBE gene expression in human HepG2 cells at IC50 after 48 hrs by microarray analysis; format: functional, cell-based
HepG2 [27] = test: Effect on CASP7 gene expression in human HepG2 cells at IC50 after 48 hrs by microarray analysis; format: functional, cell-based
HepG2 [28] = test: Effect on GADD45G gene expression in human HepG2 cells at IC50 after 48 hrs by microarray analysis; format: functional, cell-based
HepG2 [29] = test: Effect on TUBB1 gene expression in human HepG2 cells at IC50 after 48 hrs by microarray analysis; format: functional, cell-based
PANC-1 [30] = test: Effect on TOP2A gene expression in human PANC1 cells at IC50 after 48 hrs by microarray analysis; format: functional, cell-based
PANC-1 [31] = test: Effect on FEZ1 gene expression in human PANC1 cells at IC50 after 48 hrs by microarray analysis; format: functional, cell-based
PANC-1 [32] = test: Induction of apoptosis in human PANC1 cells assessed as increase in caspase-3/7 activity after 24 hrs by Caspase-Glo 3/7 luminescence assay; format: functional, cell-based
HepG2 [33] = test: Effect on TNFRSF 19 gene expression in human HepG2 cells at IC50 after 48 hrs by microarray analysis; format: functional, cell-based
HepG2 [34] = test: Effect on TOP3B gene expression in human HepG2 cells at IC50 after 48 hrs by microarray analysis; format: functional, cell-based
PANC-1 [35] = test: Effect on CASP7 gene expression in human PANC1 cells at IC50 after 48 hrs by microarray analysis; format: functional, cell-based
PANC-1 [36] = test: Effect on ITGA2 gene expression in human PANC1 cells at IC50 after 48 hrs by microarray analysis; format: functional, cell-based
HepG2 [37] = test: Induction of apoptosis in human HepG2 cells assessed as increase in caspase-3/7 activity after 24 hrs by Caspase-Glo 3/7 luminescence assay; format: functional, cell-based
[38] = Selectivity index, ratio of IC50 for hTERT-BJ cells to IC50 for human HepG2 cells; format: toxicity; conditions: hTERT-BJ cells versus HepG2 cells, read-out: Ratio IC50
HepG2 [39] = test: Effect on GADD45A gene expression in human HepG2 cells at IC50 after 48 hrs by microarray analysis; format: functional, cell-based
PANC-1 [40] = test: Antiproliferative activity against human PANC1 cells after 48 hrs by resazurin dye-based fluorescence assay; format: functional, cell-based; conditions: PANC-1, 48 h
HepG2 [41] = test: Effect on GOLPH4 gene expression in human HepG2 cells at IC50 after 48 hrs by microarray analysis; format: functional, cell-based
HepG2 [42] = test: Effect on TOP2B gene expression in human HepG2 cells at IC50 after 48 hrs by microarray analysis; format: functional, cell-based
PANC-1 [43] = test: Effect on GSTM1 gene expression in human PANC1 cells at IC50 after 48 hrs by microarray analysis; format: functional, cell-based
HepG2 [44] = test: Effect on WNT2B gene expression in human HepG2 cells at IC50 after 48 hrs by microarray analysis; format: functional, cell-based
HepG2 [45] = test: Effect on NAV 2 gene expression in human HepG2 cells at IC50 after 48 hrs by microarray analysis; format: functional, cell-based
PANC-1 [46] = test: Effect on CLDN14 gene expression in human PANC1 cells at IC50 after 48 hrs by microarray analysis; format: functional, cell-based
PANC-1 [47] = test: Effect on LOC407835 gene expression in human PANC1 cells at IC50 after 48 hrs by microarray analysis; format: functional, cell-based

Activity (HepG2 [10]): Active
Activity (PANC-1 [21]): Active
IC50 (PANC-1 [40]): 5.45 µM
Compound: O=C(N/N=C/c1cc2ccccc2nc1Cl)c1cc2cc(Br)ccc2oc1=O
Activity (HepG2 [1]): Active
Activity (HepG2 [2]): Active
Activity (HepG2 [3]): Active
fold change (FC) (HepG2 [4]): 3.51
Activity (HepG2 [5]): Active
Activity (TERT-RPE1): 19.41%
Activity (PANC-1 [6]): Active
Activity (hTERT-BJ [7]): 3.47%
Activity (PANC-1 [8]): Active
Activity (HepG2 [9]): Active
Activity (PANC-1 [11]): Active
Activity (PANC-1 [12]): Active
Activity (HepG2 [13]): Active
Activity (HepG2 [14]): Active
Activity (PANC-1 [15]): Active
fold change (FC) (HepG2 [16]): 1.96
Activity (HepG2 [17]): Active
Activity (HepG2 [18]): Active
Activity (HepG2 [19]): Active
fold change (FC) (HepG2 [20]): 2.45
Activity (HepG2 [22]): Active
Activity (PANC-1 [23]): Active
Activity (hTERT-BJ [24]): 3.63%
fold change (FC) (HepG2 [25]): -1.54
Activity (HepG2 [26]): Active
Activity (HepG2 [27]): Active
Activity (HepG2 [28]): Active
Activity (HepG2 [29]): Active
Activity (PANC-1 [30]): Active
Activity (PANC-1 [31]): Active
Activity (PANC-1 [32]): Dose-dependent effect
Activity (HepG2 [33]): Active
Activity (HepG2 [34]): Active
Activity (PANC-1 [35]): Active
Activity (PANC-1 [36]): Active
Activity (HepG2 [37]): Dose-dependent effect
selectivity ratio [38]: > 5.31
Activity (HepG2 [39]): Active
Activity (HepG2 [41]): Active
Activity (HepG2 [42]): Active
Activity (PANC-1 [43]): Active
Activity (HepG2 [44]): Active
Activity (HepG2 [45]): Active
Activity (PANC-1 [46]): Active
Activity (PANC-1 [47]): Active
